The record followed here is patent US7879887B2, “α-amino acid derivatives and medicaments containing the same as an active ingredient” (Nissan Chemical Industries, Ltd., priority 2006, dated 2011).

One assay has as its system leukemia cell line KG-1a. Kind of assay: Cell proliferation inhibitory activity, KG-1a. It is filed as cell-based. The settings on record: Homo sapiens, 96 h, cells counted 4 days later with Cell Counting Kit-8. The method in brief:
(§1)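 IC50 values come from a 4-day proliferation assay in which cells were cultured with multiple test compound concentrations and quantified by Cell Counting Kit-8.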
For orientation: Tetrazolium dyes change colour on reduction, which living cells bring about.

The subject of assay [1] is breast cancer cell line MDA-MB-231. The experiment in a line: Cell proliferation inhibitory activity, MDA-MB-231. It is filed as cell-based. Conditions: cells counted 4 days later with Cell Counting Kit-8. The procedure: (§2) Evaluations were carried out using colon carcinoma cell line SW620 (Cat. No. CCL-227), lung carcinoma cell line NCI-H460 (Cat. No. HTB-177), prostate cancer cell line DU 145 (Cat. No. HTB-81), breast cancer cell line MDA-MB-231 (Cat. No. HTB26) and leukemia cell line KG-1a (Cat. No. CCL-246.1) purchased from ATCC, pancreatic cancer cell line MIAPaCa-2 (Cat. No. CRL-1420) purchased from Dainippon Pharmaceutical, and ovarian cancer cell line IGROV1 received from the Netherland Cancer Institute. The cells were cultured under the conditions recommended by the supplier for each cell line, or with respect to IGROV1, according to the method described in Cancer Res. 59: 4559-4563, 1999. Cells suspended in media were added to solutions containing the test substances at various concentrations followed by culturing in a 5% CO2 incubator at 37° C. The numbers of cells were counted 4 days later with the Cell Counting Kit-8. IC50 values were calculated by assigning measured values in the case of not containing a test substance to an inhibition of 0%, and assigning measured values in the case of not containing a test substance or cells to an inhibition of 100%.

The next assay addresses T1, CDK3/Cyclin E complex (Homo sapiens, UniProt Q00526).
T1 construct: purchased Upstate Inc. 14-487
The experiment in a line: In vitro kinase assay, CDK3/Cyclin E complex. The format is biochemical. The settings on record: recombinant protein (Upstate); read-out: CDK3/cyclinE IC50. The method, then: (§3) Inhibitory activity against Aurora A, CDK1/Cyclin B complex, CDK2/Cyclin E complex and CDK3/Cyclin E complex were measured by in vitro kinase assay using recombinant proteins.

Another assay deals with CDK2/Cyclin E complex (Homo sapiens, UniProt P24941). Kind of assay: In vitro kinase assay, CDK2/Cyclin E complex. Conditions: recombinant protein (Upstate); read-out: CDK2/cyclinE IC50. It is filed as biochemical. The method, then:
as §3

In assay [2] the test system is ovarian cancer cell line IGROV1. The experiment in a line: Cell proliferation inhibitory activity, IGROV1. It is filed as cell-based. The settings on record: cells counted 4 days later with Cell Counting Kit-8. The method, then:
as §2

The test system of assay [3] is colon carcinoma cell line SW620. The experiment in a line: Cell proliferation inhibitory activity, SW620. The format is cell-based, human. Conditions: cells counted 4 days later with Cell Counting Kit-8. The gist of the method:
as §1

In the next assay the target is T2, Aurora A (Homo sapiens, UniProt O14965).
T2 construct: purchased Upstate Inc. 14-511
T2 sequence (O14965 1-403): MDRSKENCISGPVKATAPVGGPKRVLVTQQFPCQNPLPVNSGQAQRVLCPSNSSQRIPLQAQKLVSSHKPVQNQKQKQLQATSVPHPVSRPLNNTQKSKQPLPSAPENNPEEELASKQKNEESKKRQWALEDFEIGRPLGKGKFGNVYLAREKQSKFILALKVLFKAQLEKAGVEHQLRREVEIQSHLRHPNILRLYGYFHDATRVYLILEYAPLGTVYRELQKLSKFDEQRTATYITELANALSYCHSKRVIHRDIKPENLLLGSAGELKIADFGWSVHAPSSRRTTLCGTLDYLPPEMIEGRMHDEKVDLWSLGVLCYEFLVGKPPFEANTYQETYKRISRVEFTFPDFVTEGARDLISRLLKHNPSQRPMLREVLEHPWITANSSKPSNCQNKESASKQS
The experiment in a line: In vitro kinase assay, Aurora A. It is filed as biochemical. Conditions: recombinant protein (Upstate). The method in brief:
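Recombinant human enzymes assayed per supplier protocol. IC50 derived with compound-free wells set as 0% inhibition and compound- and enzyme-free wells as 100% inhibition.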

Assay [4] concerns prostate cancer cell line DU 145. The experiment in a line: Cell proliferation inhibitory activity, DU 145. It is filed as cell-based, human. Conditions: cells counted 4 days later with Cell Counting Kit-8. The gist of the method:
as §1

The test system of assay [5] is lung carcinoma cell line NCI-H460. Kind of assay: Cell proliferation inhibitory activity, NCI-H460. It is filed as cell-based. Conditions: cells counted 4 days later with Cell Counting Kit-8. The procedure:
as §2

The target in another assay is T3, CDK1/Cyclin B complex (Homo sapiens, UniProt P06493).
T3 construct: purchased Upstate Inc. 14-450
T3 sequence (P06493 whole entry): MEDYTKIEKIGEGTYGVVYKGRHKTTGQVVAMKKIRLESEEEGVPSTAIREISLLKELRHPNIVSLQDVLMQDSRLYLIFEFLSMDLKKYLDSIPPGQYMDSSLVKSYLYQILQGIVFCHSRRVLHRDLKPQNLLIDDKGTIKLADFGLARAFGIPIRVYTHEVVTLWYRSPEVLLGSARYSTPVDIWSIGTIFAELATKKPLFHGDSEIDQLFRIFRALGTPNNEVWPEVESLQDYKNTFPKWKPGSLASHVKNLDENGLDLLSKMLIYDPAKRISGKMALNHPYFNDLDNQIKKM
T3 sequence (P14635 whole entry partner): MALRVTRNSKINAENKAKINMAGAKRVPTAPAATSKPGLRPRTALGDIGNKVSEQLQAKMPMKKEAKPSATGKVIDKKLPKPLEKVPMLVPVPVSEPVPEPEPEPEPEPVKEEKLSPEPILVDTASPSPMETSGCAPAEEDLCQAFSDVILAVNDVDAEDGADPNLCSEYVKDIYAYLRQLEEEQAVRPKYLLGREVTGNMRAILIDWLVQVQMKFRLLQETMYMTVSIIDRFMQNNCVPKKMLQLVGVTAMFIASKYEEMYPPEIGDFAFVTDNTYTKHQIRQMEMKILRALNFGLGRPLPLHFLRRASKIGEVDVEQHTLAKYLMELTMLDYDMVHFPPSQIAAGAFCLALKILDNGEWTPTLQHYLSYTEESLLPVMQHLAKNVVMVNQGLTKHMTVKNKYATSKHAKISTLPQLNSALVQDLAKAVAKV
The experiment in a line: In vitro kinase assay, CDK1/Cyclin B complex. The format is biochemical. The settings on record: recombinant protein (Upstate). The method, then: Inhibitory activity against Aurora A, CDK1/Cyclin B complex, CDK2/Cyclin E complex and CDK3/Cyclin E complex were measured by in vitro kinase assay using recombinant proteins. The assays were carried out by using recombinant proteins (Upstate Inc.) for Aurora A, CDK1/Cyclin B complex, CDK2/Cyclin E complex and CDK3/Cyclin E complex (respective cat. nos. 14-511, 14-450, 14-448 and 14-487), in accordance with the procedure described in the product instructions thereof. The 50% inhibitory concentrations (IC50 values) were calculated by assigning measured values in the case of not containing a test compound to an inhibition of 0%, and assigning measured values in the case of not containing a test compound and enzyme to an inhibition of 100%.

T1 sequence (Q00526 whole entry): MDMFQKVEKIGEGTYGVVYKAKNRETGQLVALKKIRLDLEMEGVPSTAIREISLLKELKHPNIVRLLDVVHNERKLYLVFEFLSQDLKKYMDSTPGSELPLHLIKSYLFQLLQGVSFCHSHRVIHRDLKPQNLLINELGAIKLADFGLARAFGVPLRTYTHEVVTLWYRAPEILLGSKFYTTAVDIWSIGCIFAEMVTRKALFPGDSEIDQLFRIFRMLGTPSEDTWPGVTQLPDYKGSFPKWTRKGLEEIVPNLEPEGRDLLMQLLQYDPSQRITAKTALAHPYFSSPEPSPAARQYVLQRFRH
T1 sequence (P24864 whole entry partner): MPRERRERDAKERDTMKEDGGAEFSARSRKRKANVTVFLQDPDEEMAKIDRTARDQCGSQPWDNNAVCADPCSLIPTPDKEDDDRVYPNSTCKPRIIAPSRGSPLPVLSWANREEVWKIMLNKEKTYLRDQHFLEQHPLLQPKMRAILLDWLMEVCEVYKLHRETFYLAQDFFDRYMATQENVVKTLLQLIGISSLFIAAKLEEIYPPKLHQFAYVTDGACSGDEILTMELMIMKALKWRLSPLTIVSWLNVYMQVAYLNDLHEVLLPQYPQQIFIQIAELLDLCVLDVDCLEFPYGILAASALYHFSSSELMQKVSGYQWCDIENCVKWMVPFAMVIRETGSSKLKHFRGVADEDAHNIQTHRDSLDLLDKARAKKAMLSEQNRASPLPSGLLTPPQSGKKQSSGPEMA

`O=C(CNc1cccc(F)c1)Nc1nc2ccc3[nH]ncc3c2s1` [compound 3]: the IC50 in the assay with leukemia cell line KG-1a was 100 nM; in [1] (Homo sapiens, 96 h), 4700 nM; at CDK3/Cyclin E complex, 391 nM; on CDK2/Cyclin E complex, 199 nM; in [2] (Homo sapiens, IGROV-1, 96 h), 4900 nM; in assay [3] (Homo sapiens, SW-620, 96 h) it was 1700 nM.
Regarding `Nc1cccc(NCC(=O)Nc2nc3ccc4[nH]ncc4c3s2)c1` [compound 11], the IC50 is < 100 nM in the assay on leukemia cell line KG-1a; 355 nM at CDK3/Cyclin E complex; 192 nM at CDK2/Cyclin E complex; 4800 nM in [2] (Homo sapiens, IGROV-1, 96 h); 1600 nM in [3] (Homo sapiens, SW-620, 96 h).
For `COC(=O)Nc1cc(NC(C)(C)C(=O)Nc2nc3ccc4[nH]ncc4c3s2)ccc1Cl` [compound 50], the IC50 in the assay on leukemia cell line KG-1a is < 100 nM; at CDK2/Cyclin E complex, 435 nM; in assay [2] (Homo sapiens, IGROV-1, 96 h), 4800 nM; in assay [3] (Homo sapiens, SW-620, 96 h) it was 2500 nM; at Aurora A, 426 nM.
Turning to `CC(C)(Nc1ccc(Cl)c(OCCCS(N)(=O)=O)c1)C(=O)Nc1nc2c(C(F)(F)F)cc3[nH]ncc3c2s1` [compound 94], the IC50 was 4200 nM in assay [4]; 2800 nM in [1]; 4500 nM in [2]; 1800 nM in assay [3]; 2000 nM in [5].
Consider `O=C(CNc1ccccc1)Nc1nc2ccc3[nH]ncc3c2s1` [compound 104], for which the IC50 in the assay with leukemia cell line KG-1a is < 100 nM; in assay [1] (Homo sapiens, 96 h), 4900 nM; at CDK3/Cyclin E complex it was 395 nM; on CDK2/Cyclin E complex, 412 nM; in [2] (Homo sapiens, IGROV-1, 96 h) it was 4700 nM; in assay [3] (Homo sapiens, SW-620, 96 h), 1000 nM.
`O=C(Nc1nc2ccc3[nH]ncc3c2s1)C1(Nc2ccc(Cl)cc2)CCCC1` [compound 115]: the IC50 in the assay on leukemia cell line KG-1a was < 100 nM; in assay [4] (Homo sapiens, 96 h) it was 3200 nM; in [1] (Homo sapiens, 96 h), 3900 nM; on CDK3/Cyclin E complex, 217 nM; at CDK2/Cyclin E complex, 154 nM; in assay [2] (Homo sapiens, IGROV-1, 96 h) it was 4800 nM. For the same compound, the IC50 in [3] (Homo sapiens, SW-620, 96 h) stood at 700 nM.
Turning to `O=C(Nc1nc2ccc3[nH]ncc3c2s1)C1(Nc2ccc(Cl)cc2)CCCCC1` [compound 116], the IC50 with leukemia cell line KG-1a is 200 nM; in [4] (Homo sapiens, 96 h), 3400 nM; on CDK1/Cyclin B complex, 486 nM; at CDK3/Cyclin E complex, 412 nM; at CDK2/Cyclin E complex, 245 nM; in assay [2] (Homo sapiens, IGROV-1, 96 h), 4900 nM. In assay [3] (Homo sapiens, SW-620, 96 h), this compound had an IC50 of 1000 nM.
`O=C(Nc1nc2ccc3[nH]ncc3c2s1)C1(Nc2cccc(O)c2)CC1` [compound 122]: the IC50 in the assay with leukemia cell line KG-1a is < 100 nM; in [4] (Homo sapiens, 96 h) it was 4500 nM; in assay [1] (Homo sapiens, 96 h) it was 3100 nM; on CDK1/Cyclin B complex, 197 nM; on CDK3/Cyclin E complex it was 63 nM; on CDK2/Cyclin E complex, 56 nM. For the same compound, the IC50 in assay [2] (Homo sapiens, IGROV-1, 96 h) is 4900 nM; in [3] (Homo sapiens, SW-620, 96 h), 1100 nM; in assay [5] (Homo sapiens, 96 h), 4000 nM; at Aurora A it was 168 nM.
